Measured values from the supplement of paper PMC5908809.

Key:
[1] = test system: normal primary NK cells, pool 3 (3 donors) (IL-2 2.5 ng/mL); test: percent inhibition of viability; higher = more inhibition; details: 72 h
[2] = test system: NK-92 (IL-2 2.5 ng/mL); test: as above; details: 72 h
[3] = test system: SNK-6 (IL-2 2.5 ng/mL); test: as above; details: 72 h
[4] = test system: normal primary NK cells, pool 1 (3 donors), resting (IL-2 0 ng/mL); test: as above; details: 72 h
[5] = test system: YT (IL-2 2.5 ng/mL); test: as above; details: 72 h
[6] = test system: normal primary NK cells, pool 2 (3 donors) (IL-2 2.5 ng/mL); test: as above; details: 72 h
[7] = test system: normal primary NK cells, pool 1 (3 donors) (IL-2 2.5 ng/mL); test: as above; details: 72 h
[8] = test system: DERL-7 (IL-2 2.5 ng/mL); test: as above; details: 72 h
[9] = test system: IMC-1 (IL-2 20 ng/mL); test: as above; details: 72 h
[10] = test system: NKL (IL-2 2.5 ng/mL); test: as above; details: 72 h
[11] = test system: NK-YS (IL-2 2.5 ng/mL); test: as above; details: 72 h
[12] = test system: KAI3 (IL-2 2.5 ng/mL); test: as above; details: 72 h
[13] = test system: KHYG-1 (IL-2 2.5 ng/mL); test: as above; details: 72 h
[14] = test system: normal NK cells expanded with K562-aAPC; test: drug sensitivity score (DSS) (DSS units); higher = more sensitive; extreme values may be limits of the assay; details: 72 h; IL-2 2.5 ng/mL
Experimental: (§1)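 Drug sensitivity and resistance testing on K562-aAPC-expanded normal NK cells: 5 concentrations (10-fold steps over a 10,000-fold range), 72 h at 37 °C, viability by CellTiter-Glo normalised to DMSO and benzethonium chloride controls; DSS from the fitted curve.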

[15] = test system: normal NK cells expanded with K562-aAPC; test: percent inhibition of viability; higher = more inhibition; details: 72 h, IL-2 2.5 ng/mL
Experimental: as §1

[16] = test system: normal primary NK cells, pool 3 (3 donors) (IL-2 2.5 ng/mL); test: drug sensitivity score (DSS) (DSS units); higher = more sensitive; extreme values may be limits of the assay; details: 72 h
[17] = test system: NK-92 (IL-2 2.5 ng/mL); test: as above; details: 72 h
[18] = test system: SNK-6 (IL-2 2.5 ng/mL); test: as above; details: 72 h
[19] = test system: normal primary NK cells, pool 1 (3 donors), resting (IL-2 0 ng/mL); test: as above; details: 72 h
[20] = test system: YT (IL-2 2.5 ng/mL); test: as above; details: 72 h
[21] = test system: normal primary NK cells, pool 2 (3 donors) (IL-2 2.5 ng/mL); test: as above; details: 72 h
[22] = test system: normal primary NK cells, pool 1 (3 donors) (IL-2 2.5 ng/mL); test: as above; details: 72 h
[23] = test system: DERL-7 (IL-2 2.5 ng/mL); test: as above; details: 72 h
[24] = test system: IMC-1 (IL-2 20 ng/mL); test: as above; details: 72 h
[25] = test system: NKL (IL-2 2.5 ng/mL); test: as above; details: 72 h
[26] = test system: NK-YS (IL-2 2.5 ng/mL); test: as above; details: 72 h
[27] = test system: KAI3 (IL-2 2.5 ng/mL); test: as above; details: 72 h
[28] = test system: KHYG-1 (IL-2 2.5 ng/mL); test: as above; details: 72 h

NS(=O)(=O)OC[C@@H]1C[C@@H](n2ccc3c(N[C@H]4CCc5ccccc54)ncnc32)C[C@@H]1O [Pevonedistat] (max concentration tested 10000 nM)
percent inhibition of viability [%]
Details | 1 nM | 10 nM | 100 nM | 1000 nM | 10000 nM
[1] | -5.71 | 5 | 10.3 | 68.8 | 81
[2] | -8.15 | 6.99 | 1.09 | 75.8 | 109
[3] | 23.6 | 3.72 | 89 | 97.2 | 99.5
[4] | 1.82 | 21.5 | -26.7 | -18.9 | -22.4
[5] | -2.08 | 2.87 | 62.7 | 79.6 | 82.8
[6] | -6.66 | 4.92 | 9.96 | 45 | 64.2
[7] | -6.09 | 19.2 | 23.3 | 57.4 | 69.8
[8] | 1.08 | 2.36 | -6.58 | 91.5 | 101
[9] | 0.59 | 6.87 | 46.6 | 92.8 | 98.2
[10] | -12.9 | -14.6 | -16.9 | 92.3 | 104
[11] | 0.95 | -1.33 | 3.83 | 78.1 | 98.4
[12] | 9.59 | 12.4 | 70.2 | 95 | 100
[13] | 3.14 | -1.1 | 71.7 | 105 | 106
[15] | -5 | -5.72 | -9.68 | 70.2 | 80.3

Details | drug sensitivity score
[14] | 12.6
[16] | 14
[17] | 14.2
[18] | 29
[19] | 0
[20] | 22.8
[21] | 9.66
[22] | 14
[23] | 16.3
[24] | 22.6
[25] | 16.1
[26] | 15
[27] | 27.2
[28] | 26.2
